Results taken from US20260152487A1 (Sitryx Therapeutics Limited, priority 2021, published 2026).

What was measured:
recombinant human PKM2 = biological target: T1, recombinant human PKM2 (Homo sapiens, UniProt P14618); assay: Human PKM2 activation assay (Kinase-Glo Plus luminescent detection of generated ATP); format: biochemical; conditions: for Emax: percentage activation normalised to DMSO vehicle (LOW) and 5 μM TEPP-46 (HIGH), read-out: hPKM2 Emax; for EC50: recombinant human PKM2 activation, 4-parameter logistic fit, read-out: hPKM2 EC50
T1 construct: His (N); purchased R&D Systems
Method in brief: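 Luminescent ATP detection (Kinase-Glo Plus, 15 min, 26 °C) followed a 60 min, 26 °C shaken reaction of compound with […] His-tagged human PKM2, PEP and ADP in imidazole/KCl/MgCl2 buffer with Tween20 and BSA, pH 7.2.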

recombinant human PKLR = biological target: T2, recombinant human PKLR (Homo sapiens, UniProt P30613); assay: Human PKLR activation assay (Kinase-Glo Plus luminescent detection of generated ATP); format: biochemical; conditions: for EC50: activation of recombinant human PKLR, 4-parameter logistic fit, read-out: hPKLR EC50; for Emax: percentage activation normalised to DMSO vehicle (LOW) and 5 μM TEPP-46 (HIGH) controls, read-out: hPKLR Emax (%)
T2 construct: His (N); purchased R&D Systems

A549 cells = assay: A549 cell proliferation in low-serine medium (CellTiter-Glo 2.0 viable cell number); format: cell-based; conditions: Homo sapiens, 72 h, 3 days, Assay Medium with 20 μM L-serine
Procedure: The effect of compounds of Formula (Ia) on A549 cell proliferation in low-serine medium was assessed using a luminescence assay of viable cell number (CellTiter-Glo® 2.0, Promega) duplexed with a fluorescent cytotoxicity assessment (CelITox™ Green, Promega). Cell culture reagents were from ThermoFisher unless specified otherwise. Assay reagents were from Sigma-Aldrich unless specified otherwise. Test Compounds were prepared as 10 mM DMSO stocks and dilution series prepared in DMSO for direct dilution into culture medium.
Cells were passaged every 3-4 days at 80-90% confluence. The cell monolayer was washed twice with room-temperature Ca^2+/Mg-free PBS and 4 ml room-temperature trypsin-EDTA added to the flask. After 5 minutes' incubation (37° C., 5% CO2) to detach cells, trypsin was quenched with 13 ml warmed complete growth medium and the cells harvested and diluted to 2.4×10^4 cells/ml for dispensing into 384-well clear-bottom black-walled plates (600 cells/well).
Following overnight incubation, growth medium was aspirated from each well and the cells washed twice with Assay Medium comprising Basal Medium Eagle supplemented with 3% heat-inactivated dialysed FBS plus 2 mM L-glutamine plus 20 μM L-serine (Sigma-Aldrich). After aspiration of the final wash medium, Assay Medium containing Test Compound was added to each well. DMSO vehicle controls were included on each plate.
Cells were incubated for 3 days in a humidified incubator (37° C., 5% CO2) at which point CelITox™ Green and CellTiter-Glo® reagents were prepared according to the manufacturer's instructions. Triton-X was added to HIGH wells for cytotoxicity determination and the plate incubated for 30 minutes (20° C., ambient humidity and pCO2). CelITox™ Green reagent was added to each well and the plate covered, placed on an orbital shaker @450 rpm for 2 minutes, and incubated in the dark for 15 minutes (20° C., ambient humidity and pCO2). Endpoint fluorescence was measured using a plate reader (PHERAstar® FSX, BMG Labtech).
Following cytotoxicity determination, CellTiter-Glo® reagent was added to each well and the plate placed on an orbital shaker @450 rpm for 2 minutes to lyse cells. Plates were incubated in the dark for 15-30 minutes (20° C., ambient humidity and pCO2) prior to endpoint luminescence measurement (PHERAstar® FSX, BMG Labtech).
Proliferation was calculated by normalizing luminescence signals to LOW controls obtained from a parallel plate processed at the time of Test Compound challenge and HIGH (DMSO vehicle) wells from the compound plate. IC50 values were determined from a 4-parameter logistic fit of compound concentration-response curves.

T2 sequence (P30613 whole entry): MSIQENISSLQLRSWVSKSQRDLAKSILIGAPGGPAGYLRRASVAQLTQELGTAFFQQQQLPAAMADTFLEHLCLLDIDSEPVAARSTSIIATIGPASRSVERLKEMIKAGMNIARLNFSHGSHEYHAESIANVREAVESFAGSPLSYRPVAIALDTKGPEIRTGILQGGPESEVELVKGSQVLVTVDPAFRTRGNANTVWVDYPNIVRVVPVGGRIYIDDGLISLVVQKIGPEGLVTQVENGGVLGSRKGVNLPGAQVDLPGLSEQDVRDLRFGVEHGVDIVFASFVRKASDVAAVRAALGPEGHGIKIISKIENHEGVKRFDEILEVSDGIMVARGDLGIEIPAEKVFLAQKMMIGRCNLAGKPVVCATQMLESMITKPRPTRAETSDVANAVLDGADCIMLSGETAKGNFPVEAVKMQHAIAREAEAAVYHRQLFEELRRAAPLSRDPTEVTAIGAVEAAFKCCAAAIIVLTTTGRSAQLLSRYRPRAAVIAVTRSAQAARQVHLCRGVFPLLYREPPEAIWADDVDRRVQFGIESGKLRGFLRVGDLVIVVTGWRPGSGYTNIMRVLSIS
T1 sequence (P14618 2-531 limits assumed): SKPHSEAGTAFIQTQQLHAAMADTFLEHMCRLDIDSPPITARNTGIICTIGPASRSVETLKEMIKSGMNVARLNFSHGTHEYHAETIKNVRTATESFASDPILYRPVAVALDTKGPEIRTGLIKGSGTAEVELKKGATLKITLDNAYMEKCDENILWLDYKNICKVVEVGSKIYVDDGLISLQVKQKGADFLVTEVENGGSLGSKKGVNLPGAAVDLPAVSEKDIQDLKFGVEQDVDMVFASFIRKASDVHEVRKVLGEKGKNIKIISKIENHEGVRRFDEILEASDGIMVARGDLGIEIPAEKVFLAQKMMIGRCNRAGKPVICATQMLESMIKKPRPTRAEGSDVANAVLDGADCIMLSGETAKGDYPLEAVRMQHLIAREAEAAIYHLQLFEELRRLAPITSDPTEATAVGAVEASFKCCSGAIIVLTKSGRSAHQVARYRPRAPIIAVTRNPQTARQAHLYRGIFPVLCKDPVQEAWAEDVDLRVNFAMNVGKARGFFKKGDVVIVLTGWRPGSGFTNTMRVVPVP

Emax (recombinant human PKM2) [%]	EC50 (recombinant human PKM2) [µM]	EC50 (recombinant human PKLR) [µM]	Emax (recombinant human PKLR) [%]	IC50 (A549 cells) [µM]	Structure (SMILES)
129	0.0276	0.0047	159	0.0012	COc1ccc(S(=O)(=O)c2ccc3c(=O)n(Cc4ccn(C5CC5)n4)ncc3c2)cc1 [Example 1, 2-((1-cyclopropyl-1H-pyrazol-3-yl)methyl)-6-((4-methoxyphenyl)sulfonyl)phthalazin-1(2H)-one]
115	0.0401	0.0053	149	0.0015	Nc1cccc(Cn2ncc3cc(S(=O)(=O)c4ccccc4)ccc3c2=O)n1 [Example 38, 2-((6-aminopyridin-2-yl)methyl)-6-(phenylsulfonyl)phthalazin-1(2H)-one]
111	0.0421	0.0158	109	0.002	COc1ccc(Cn2ncc3cc(S(=O)(=O)c4ccccc4)ccc3c2=O)cn1 [Example 41, 2-((6-methoxypyridin-3-yl)methyl)-6-(phenylsulfonyl)phthalazin-1(2H)-one]
112	0.0455	0.0031	142	0.0022	COc1ccc(S(=O)(=O)c2ccc3c(=O)n(Cc4cc(C)[nH]n4)ncc3c2)cc1 [Example 54, 6-((4-methoxyphenyl)sulfonyl)-2-((5-methyl-1H-pyrazol-3-yl)methyl)phthalazin-1(2H)-one]
98	0.0519	0.0101	131	0.0017	COc1ccc(S(=O)(=O)c2ccc3c(=O)n(Cc4cccnc4O)ncc3c2)cc1 [Example 56, 2-((2-hydroxypyridin-3-yl)methyl)-6-((4-methoxyphenyl)sulfonyl)phthalazin-1(2H)-one]
110	0.1	0.0341	122	0.0036	Cn1ccc(Cn2ncc3cc(S(=O)(=O)c4ccccc4)ccc3c2=O)n1 [Example 60, 2-((1-methyl-1H-pyrazol-3-yl)methyl)-6-(phenylsulfonyl)phthalazin-1(2H)-one]
117	0.0708	0.0171	134	0.0022	O=c1c2ccc(S(=O)(=O)c3ccccc3)cc2cnn1Cc1cc[nH]n1 [Example 68, 2-((1H-pyrazol-3-yl)methyl)-6-(phenylsulfonyl)phthalazin-1(2H)-one]
99.9	0.0302	0.014	117	0.0035	O=c1c2ccc(S(=O)(=O)c3ccccc3)cc2cnn1Cc1ccn(C2CC2)n1 [Example 73, 2-((1-cyclopropyl-1H-pyrazol-3-yl)methyl)-6-(phenylsulfonyl)phthalazin-1(2H)-one]
108	0.0477	0.0115	137	0.0022	Cc1cccc(Cn2ncc3cc(S(=O)(=O)c4ccccc4)ccc3c2=O)n1 [Example 75, 2-((6-methylpyridin-2-yl)methyl)-6-(phenylsulfonyl)phthalazin-1(2H)-one]
98.9	0.0498			0.0067	COc1cccc(Cn2ncc3cc(S(=O)(=O)c4ccccc4)ccc3c2=O)c1 [Example 81, 2-(3-methoxybenzyl)-6-(phenylsulfonyl)phthalazin-1(2H)-one]
87.4	0.0809			0.0035	COCC(c1ccccc1)n1ncc2cc(S(=O)(=O)c3ccc(OC)cc3)ccc2c1=O (stereo not drawn) [Example 82, 2-(2-methoxy-1-phenylethyl)-6-((4-methoxyphenyl)sulfonyl)phthalazin-1(2H)-one]
101	0.0508	0.0096	135	0.0017	Cc1cn(C)nc1Cn1ncc2cc(S(=O)(=O)c3ccccc3)ccc2c1=O [Example 89, 2-((1,4-dimethyl-1H-pyrazol-3-yl)methyl)-6-(phenylsulfonyl)phthalazin-1(2H)-one]
106	0.0557	0.0101	139	0.003	Cc1cc(Cn2ncc3cc(S(=O)(=O)c4ccccc4)ccc3c2=O)nn1C [Example 90, 2-((1,5-dimethyl-1H-pyrazol-3-yl)methyl)-6-(phenylsulfonyl)phthalazin-1(2H)-one]
116	0.0954			0.0099	CC(C)n1ccc(Cn2ncc3cc(S(=O)(=O)c4ccccc4)ccc3c2=O)n1 [Example 95, 2-((1-isopropyl-1H-pyrazol-3-yl)methyl)-6-(phenylsulfonyl)phthalazin-1(2H)-one]
116	0.0626	0.0093	128	0.0033	Cc1cc(Cn2ncc3cc(S(=O)(=O)c4ccccc4)ccc3c2=O)n[nH]1 [Example 96, 2-((5-methyl-1H-pyrazol-3-yl)methyl)-6-(phenylsulfonyl)phthalazin-1(2H)-one]
82	0.257			0.009	COc1ccc(S(=O)(=O)c2ccc3c(=O)n(Cc4ccc(C)nc4O)ncc3c2)cc1 [Example 98, 2-((2-hydroxy-6-methylpyridin-3-yl)methyl)-6-(4-methoxyphenylsulfonyl)phthalazin-1(2H)-one]
107	0.138			0.0046	COc1ccc(S(=O)(=O)c2ccc3c(=O)n(Cc4c(C)ccnc4O)ncc3c2)cc1 [Example 99, 2-((2-hydroxy-4-methylpyridin-3-yl)methyl)-6-(4-methoxyphenylsulfonyl)phthalazin-1(2H)-one]
70.8	0.677			0.0739	COc1ccc(S(=O)(=O)c2ccc3c(=O)n(Cc4cc(F)cnc4O)ncc3c2)cc1 [Example 100, 2-((5-fluoro-2-hydroxypyridin-3-yl)methyl)-6-(4-methoxyphenylsulfonyl)phthalazin-1(2H)-one]
74.5	0.24			0.354	COc1ccc(S(=O)(=O)c2ccc3c(=O)n(Cc4cc(C(C)C)cnc4O)ncc3c2)cc1 [Example 101, 2-((2-hydroxy-5-isopropylpyridin-3-yl)methyl)-6-(4-methoxyphenylsulfonyl)phthalazin-1(2H)-one]
94.9	0.0699			0.0022	COc1ccc(S(=O)(=O)c2ccc3c(=O)n(Cc4c(Cl)ccnc4O)ncc3c2)cc1 [Example 102, 2-((4-chloro-2-hydroxypyridin-3-yl)methyl)-6-(4-methoxyphenylsulfonyl) phthalazin-1(2H)-one]
98.8	0.0413			0.0007	COc1ccc(S(=O)(=O)c2ccc3c(=O)n(Cc4c(F)ccnc4O)ncc3c2)cc1 [Example 103, 2-((4-fluoro-2-hydroxypyridin-3-yl)methyl)-6-(4-methoxyphenylsulfonyl) phthalazin-1(2H)-one]
104	0.0565			0.0012	COc1ccc(S(=O)(=O)c2ccc3c(=O)n(Cc4n[nH]cc4C)ncc3c2)cc1 [Example 104, 6-((4-methoxyphenyl)sulfonyl)-2-((4-methyl-1H-pyrazol-3-yl)methyl)phthalazin-1(2H)-one]
93	0.142			0.0062	COc1ccc(S(=O)(=O)c2ccc3c(=O)n(Cc4ccc(OC)cc4C(N)=O)ncc3c2)cc1 [Example 106, 5-methoxy-2-((6-(4-methoxyphenylsulfonyl)-1-oxophthalazin-2(1H)-yl)methyl)benzamide]
132	0.178			0.002	O=c1c2ccc(S(=O)(=O)c3ccccc3)cc2cnn1Cc1cc2ccccn2n1 [Example 108, 6-(phenylsulfonyl)-2-(pyrazolo[1,5-a]pyridin-2-ylmethyl)phthalazin-1(2H)-one]
